Tests used:
[1] = system: Wild type Saccharomyces cerevisiae cells (strain BY4741); assay: Growth of yeast cells in the presence or absence of VPA and/or NaCl (absorbance at 550 nm); type: cell-based; conditions: single agent (VPA or NaCl) in synthetic medium, 30° C.
Procedure: The combined effect of osmotic stress and valproate (VPA) is deleterious to yeast cells. Wild type Saccharomyces cerevisiae cells (strain BY4741) were grown in synthetic medium in the presence or absence of VPA and/or NaCl. Cells were incubated at 30° C., and growth was monitored spectrophotometrically by measuring absorbance at 550 nm.

[2] = system: Candida albicans (Strain Sc 5314); assay: Hyphae formation in Candida cells, serum-induced (percentage of cells forming hyphal structures); type: cell-based; conditions: in the presence of VPA
Procedure: Hyphae formation is at its peak after 3 hours of incubation at 37° C. at 200 rpm. An overnight culture of Candida albicans (Strain Sc 5314) was prepared using serum-free RPMI-64 medium. Cells were pelleted at 7,500×g and resuspended in RPMI-64 supplemented with 10% Fetal Bovine Serum (FBS) to induce hyphae formation. Cultures were incubated at 37° C. in a rotary shaker at 200 rpm. Samples were drawn out at one-hour intervals and observed for development of hyphal structures.
(§1) An overnight culture of C. albicans was prepared using serum-free RPMI-64 medium. Cells were pelleted at 7,500×g and resuspended in RPMI-64/10% FBS with or without 0.1M NaCl and/or 2 mM VPA as indicated. Cultures were incubated at 37° C. in a rotary shaker at 200 rpm for 3 hours. For each sample, 300-500 cells were counted and the percentage of cells forming hyphal structures was calculated. Values represent the mean of three independent experiments±S.E. (error bars).
as §1, with “sorbitol” for “NaCl”, “Values represent the mean of three independent experiments±S.E. (error bars).” left out

Row | Compound | Growth decreased [1] | Transformation of Candida yeast cells into hyphae forming cells [2]
1 | CCCC(CCC)C(=O)O [VPA, Valproic acid (di-n-propyl acetic acid)] | 50% | greatly reduced
2 | [Cl-].[Na+] [NaCl, sodium chloride] | 50% | 
